These results are taken from PubChem BioAssay (NCI).

Broadly, the GI50 is the concentration that inhibits growth by half. What is called TGI is the concentration at which net growth stops. Higher therefore signals less potent growth arrest.

Common to all, as to assay: DTP human tumour cell line panel, 48 h
Experiment [1] concerns U251 CNS.
Experiment [2] concerns NCI-H460 lung.
Experiment [3] concerns OVCAR-5 ovarian.
The subject of experiment [4] is MALME-3M melanoma.
The subject of experiment [5] is SF-268 CNS.
The test system of experiment [6] is IGROV1 ovarian.
In experiment [7] the test system is NCI-H23 lung.
Experiment [8] has as its system SNB-19 CNS.
Experiment [9] deals with SK-MEL-28 melanoma.
For experiment [10], the system named is UACC-62 melanoma.

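Dose response: 5 concentrations. Exposure: 48 h. Format: 96-well plates. Endpoint: linear interpolation; highest concentration if not reached. GI50 is the concentration that inhibits growth by half. TGI denotes the concentration required for complete inhibition of growth.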

For `Br[C](Br)(Br)[Hg][c]1ccccc1`, the GI50 in experiment [1] was 13.9 µM; in experiment [2], 16.8 µM; in [3] it was 15.4 µM; in [4], 1.31 µM; in [5], 24.1 µM; in experiment [6], 13.8 µM. Also, the GI50 in experiment [7] was 9.3 µM; in experiment [8] it was 16.6 µM; in [9], 14.3 µM; in experiment [10], 16.4 µM. For the same molecule, the TGI was found to be 27.6 µM in experiment [1]; 37.9 µM in [2]; 28.8 µM in experiment [3]; 3.99 µM in experiment [4]; 56.2 µM in experiment [5]; 27.6 µM in [6]. The total growth inhibition concentration (TGI) in experiment [7] turned out to be 23 µM; in experiment [8] it was 30.6 µM; in experiment [9] it was 27.8 µM; in experiment [10], 38.2 µM.
As to `COc1ccc(OC)c2c(C(=O)O)c(Cc3ccccc3)ccc12`, the TGI in [1], in experiment [2], in experiment [3], in [4], in experiment [5] and in experiment [6] was more than 100 µM in each case. Moreover, the TGI in experiment [7], in experiment [8], in experiment [9] and in [10] was more than 100 µM throughout.
Regarding `CCOc1cc(C(C)(C)C)ccc1C1=N[C@@](C)(c2ccc(Cl)cc2)[C@@](C)(c2ccc(Cl)cc2)N1C(=O)N1CCN(CCCS(C)(=O)=O)CC1`, the GI50 in [1] was 12.2 µM; in experiment [2], 0.895 µM; in experiment [3], 8.41 µM; in experiment [4] it was 0.274 µM; in experiment [5] it was 9.42 µM; in experiment [6] it was 1.4 µM. Besides, the GI50 in experiment [7] is 10.4 µM; in experiment [8], 5.12 µM; in experiment [9] it was 6.1 µM; in experiment [10], 0.708 µM. Also, the total growth inhibition concentration (TGI) in [1] was 45.9 µM; in [2] it was 11.8 µM; in experiment [3] it was 20.8 µM; in [4], 11.3 µM; in [5], 37.6 µM; in [6], 10.9 µM. In addition, the TGI in experiment [7] worked out at 24.9 µM; in [8], 17.8 µM; in experiment [9], 19.3 µM; in experiment [10] it was 6.41 µM.
As for `CCOC(=O)NC(=O)c1cn(CCCOC(=O)CCCCCCCCCCC(=O)OCCCn2cc(C(=O)NC(=O)OCC)c(=O)[nH]c2=O)c(=O)[nH]c1=O`, the TGI in experiment [1], in [2], in [3], in [4], in experiment [5] and in [6] was more than 100 µM in each case. The concentration for total growth inhibition (TGI) in experiment [7], in [8], in experiment [9] and in [10] was more than 100 µM in each case.
On to `Cc1ccc(-c2nc3ccc(Cl)cc3c(=O)n2N2C(=O)CSC2c2ccccc2Cl)cc1` (centres undefined), for which the GI50 in experiment [1] is 5.05 µM; in [2], 3.68 µM; in experiment [3], more than 100 µM; in experiment [4] it was 5.97 µM; in experiment [5], 9.97 µM; in experiment [6], 3.69 µM. The GI50 in experiment [7] is more than 100 µM; in experiment [8] it was 5 µM; in experiment [9], 20.6 µM; in experiment [10] it was 25.8 µM. Further, the total growth inhibition concentration (TGI) in [1], in experiment [2], in experiment [3], in experiment [4], in [5] and in experiment [6] was more than 100 µM in each case. For the same molecule, the concentration for total growth inhibition (TGI) in experiment [7], in experiment [8], in experiment [9] and in experiment [10] was more than 100 µM throughout.
Turning to `CC1=C[C@H]2c3c(c(O)c(O)c4oc(-c5ccccc5)cc(=O)c34)[C@H](c3cc(O)c(O)c4oc(-c5ccccc5)cc(=O)c34)[C@H]2C(C)(C)C1`, the GI50 in [1] was 0.415 µM; in experiment [2], 0.275 µM; in experiment [3], 3.22 µM; in experiment [4], 1.57 µM; in experiment [5] it was 0.541 µM; in [6] it was 0.486 µM. Also, the 50% growth inhibitory concentration (GI50) in experiment [7] is 0.375 µM; in experiment [8] it was 0.557 µM; in [9] it was 1.12 µM; in experiment [10] it was 0.516 µM. Further, the TGI was 18.7 µM in experiment [1]; 1.83 µM in experiment [2]; 13 µM in [3]; 7.76 µM in experiment [4]; 17 µM in experiment [5]; 7.51 µM in experiment [6]. The total growth inhibition concentration (TGI) in experiment [7] stood at 2.56 µM; in experiment [8], 17 µM; in [9], 9.51 µM; in experiment [10], 1.97 µM.
`C[C@]12CC[C@@H]3c4cc(OCC(F)(F)F)c(O)cc4/C(=N/O)C[C@H]3[C@@H]1CC[C@@H]2O`: the concentration for total growth inhibition (TGI) in experiment [1] was 1.07 µM; in experiment [2], 3.79 µM; in [3], more than 58.2 µM; in [4], 29.6 µM; in [5] it was 21.7 µM; in experiment [6], 20 µM. Moreover, the TGI in experiment [7] is 12.7 µM; in experiment [8], more than 63.1 µM; in [9], 25.9 µM; in experiment [10], 17.7 µM. Moreover, the concentration for 50% growth inhibition (GI50) is 0.0362 µM in [2], 0.0787 µM in [7], 0.0637 µM in experiment [9] and 0.0243 µM in experiment [10].
Regarding `CCSc1nc(SCC)c2cn[nH]c2n1`, the GI50 in experiment [1] is 65.7 µM; in experiment [2], 31.9 µM; in [3], 69.1 µM; in [4] it was more than 100 µM; in experiment [5] it was 26.3 µM; in experiment [6], 49 µM. Also, the GI50 in experiment [7] is more than 100 µM; in [8], 46.8 µM; in experiment [9] it was 64.6 µM; in experiment [10], 25.6 µM. Besides, the TGI in experiment [1] is more than 100 µM; in experiment [2], more than 100 µM; in experiment [3], more than 100 µM; in [4], more than 100 µM; in [5], 77.5 µM; in [6], more than 100 µM. Moreover, the total growth inhibition concentration (TGI) in experiment [7] is more than 100 µM; in [8], more than 100 µM; in experiment [9] it was more than 100 µM; in [10], 92.7 µM.
As for `COc1cc(/C=C/c2ccc(OC)c(OC)c2)cc(OC)c1`, the TGI in experiment [1] is 69 µM; in experiment [2], 73.6 µM; in experiment [3], more than 100 µM; in experiment [4] it was more than 100 µM; in [5], more than 100 µM; in experiment [6] it was more than 100 µM. Besides, the TGI in [7] is 65.3 µM; in [8], more than 100 µM; in [9], more than 100 µM; in experiment [10], 63.5 µM.
As to `C=C1CCC(CC[C@@H]2CC[C@]3(OC2)O[C@@]2(O)CC[C@]3(C)OC2(C)C)C(C)(C)[C@H]1C/C=C1/C(=O)OC[C@@H]1O` (some centres undefined), the concentration for total growth inhibition (TGI) came out at 6.29 µM in experiment [1]; 15.1 µM in experiment [2]; 6.65 µM in experiment [3]; 5.99 µM in experiment [4]; 8.89 µM in [5]; 11.6 µM in [6]. Also, the TGI in experiment [7] came to 5.2 µM; in experiment [8], 8.88 µM; in experiment [9], 3.58 µM; in [10], 3.8 µM.
`O=S(=O)(Nc1cc(Sc2cccc3cccnc23)c(O)c2ccccc12)c1ccccc1`: the GI50 in experiment [1] is 0.78 µM; in [2] it was 0.499 µM; in experiment [3], 1.99 µM; in experiment [4], 2.72 µM; in experiment [5], 1.48 µM; in experiment [6] it was 1.01 µM. Besides, the GI50 is 1.93 µM in experiment [7], 1.98 µM in experiment [8], 0.801 µM in experiment [9] and 1.49 µM in [10]. For the same molecule, the TGI turned out to be 24.2 µM in experiment [1]; 13.7 µM in experiment [2]; 11 µM in [3]; 9.65 µM in experiment [4]; 12.8 µM in experiment [5]; 6 µM in experiment [6]. For the same molecule, the total growth inhibition concentration (TGI) was determined as 12.8 µM in [7], 21.4 µM in experiment [8], 5.57 µM in experiment [9] and 4.33 µM in [10].
With `COc1ccc(C(=O)COc2ccc(/C=C3\COc4ccc(OC)cc4C3=O)cc2)cc1`, the GI50 in experiment [1] is 13.4 µM; in experiment [2], 57.5 µM; in [3], 30.2 µM; in experiment [4], 57.2 µM; in [5] it was 23.7 µM; in [6], 26 µM. The GI50 is 9.67 µM in experiment [7], 29.8 µM in experiment [8], 19.9 µM in [9] and 48.9 µM in experiment [10]. Moreover, the TGI was 31.2 µM in experiment [1]; more than 100 µM in experiment [2]; 86.9 µM in experiment [3]; more than 100 µM in experiment [4]; 60.5 µM in experiment [5]; 54.7 µM in experiment [6]. The TGI in [7] was 32.8 µM; in [8], more than 100 µM; in experiment [9], 56.9 µM; in experiment [10] it was more than 100 µM.
